Test results published in patent US20120027822A1, “Process for Producing Rapidly Disintegrating Spheroids (Pellets), Granules and/or Mixtures Thereof” (SPECIFAR S.A., priority 2009, published 2012).

Test: Polymorph study by X-Ray Powder Diffraction (XRPD)
Type: physicochemical
Conditions: XRPD of powder from spheroids of example 7a versus dihydrate and trihydrate patterns
Description: All the formulations described in examples 7a-7h released the API quantitatively in 15 minutes. In addition, a polymorph study was performed and the crystal phase of Esomeprazole Mg powder deriving from the spheroids of example 7a was established through the application of the X-Ray Powder Diffraction (XRPD) technique. The recorded XRD patterns shown in FIG. 2 were compared against the respective patterns of the dihydrate and trihydrate forms provided by the manufacturer. […] None of the characteristic trihydrate reflections, marked with arrows in FIG. 2, could be observed.

Compound | crystal habit after the aqueous pelletization process
COc1ccc2[n-]c([S@@+]([O-])Cc3ncc(C)c(OC)c3C)nc2c1.COc1ccc2[n-]c([S@@+]([O-])Cc3ncc(C)c(OC)c3C)nc2c1.O.O.[Mg+2] [Esomeprazole Magnesium Dihydrate] | without deteriorating the crystal habit

Test: not given
Conditions: water; cited from earlier work

Compound | aqueous solubility class (US Pharmacopoeia terms)
CCC1=C(C)CN(C(=O)NCCc2ccc(S(=O)(=O)NC(=O)N[C@H]3CC[C@H](C)CC3)cc2)C1=O [Glimepiride] | practically insoluble
Cc1c(OCC(F)(F)F)ccnc1C[S+]([O-])c1nc2ccccc2[nH]1 (stereo not shown) [Lansoprazole] | practically insoluble
COc1ccnc(C[S+]([O-])c2nc3ccc(OC(F)F)cc3[nH]2)c1OC (stereo not shown) [Pantoprazole] | freely soluble
COCCCOc1ccnc(C[S+]([O-])c2nc3ccccc3[nH]2)c1C (stereo not shown) [Rabeprazole] | very soluble
COc1ccc2[nH]c([S+]([O-])Cc3ncc(C)c(OC)c3C)nc2c1 (stereo not shown) [Omeprazole] | very slightly soluble
COc1ccc2nc([S@@+]([O-])Cc3ncc(C)c(OC)c3C)[nH]c2c1 [Esomeprazole] | slightly soluble or insoluble
